Molecular target: Protein farnesyltransferase (Homo sapiens, UniProt P49354+P49356)
Test: Inhibition of Farnesyltransferase
Assay type: protein-complex assay

IC50: 160 nM
SMILES: CC(C)=CCC/C(C)=C/CC/C(C)=C/COP(=O)(O)CP(=O)(O)O [FARNESYL METHYLENEDIPHOSPHONATE]

Source: ChEMBL document CHEMBL1137881, “Synthesis of acyloxymethyl ester prodrugs of the transferable protein farnesyl transferase substrate farnesyl methylenediphosphonate” (Bioorg Med Chem Lett, 2004)
